# Structures can show the parent of a compound that is named as a salt.
# Columns and labels:
# [1] = target: rhTDO (recombinant human TDO) (Homo sapiens, UniProt P48775); assay: Enzyme assay using rhTDO (rate of kynurenine production); assay type: biochemical; conditions: 2 h; final concentration of the compound 10 μM; rate relative to reaction without compound; read-out: rhTDO-mediated kynurenine production
# Procedure: 4 μL of a compound solution was added to 176 μL of a rhTDO reaction solution (0.5 M potassium phosphate buffer (20 μL), 0.2 M ascorbic acid (20 μL), 0.5 mM methylene blue (4 μL), 10 mg/mL catalase (2 μL), H2O (128 μL), and rhTDO (2 μL)). The mixture was pipetted and preincubated at 37° C. for 10 minutes. Then, the whole amount was brought to 200 μL by the addition of 20 μL of a 20 mM aqueous tryptophan solution, and the mixture was pipetted again and reacted at 37° C. for 120 minutes. After the reaction, the enzymatic reaction was terminated by the addition of 40 μL of a 30% [v/v] aqueous trichloroacetic acid solution to the reaction solution. The mixture was well stirred by pipetting and heated at 50° C. for 15 minutes so that N-formylkynurenine was converted to kynurenine. The reaction solution thus heated was centrifuged (15,000 rpm, 5 min, 24° C.), and 150 μL of the supernatant was transferred to a transparent 96-well flat-bottomed plate, followed by the measurement of absorbance at 490 nm using SpectraMax M5 SK (background measurement). After the measurement, a solution of 2% [w/v] p-dimethylbenzaldehyde in acetic acid was added at 150 μL/well and reacted for 5 minutes, followed by the measurement of absorbance at 490 nm again. The rate of kynurenine production was calculated according to the following expression. Rate of kynurenine production (%) for each compound in the case of using rhTDO={(Absorbance at 490 nm in the tryptophan-containing aqueous solution comprising rhTDO and the compound of the present invention−Absorbance of the background)/(Absorbance at 490 nm in the tryptophan-containing aqueous solution without the addition of the compound solution−Absorbance of the background)}×100 IDO Cell-Based Assay Protocol
# IDO in A431 cells = target: T1, IDO in A431 cells (Homo sapiens, UniProt P14902); assay: IDO cell-based assay, kynurenine production in IFN-γ stimulated A431 cells; conditions: A-431, 24 h; final concentration of the compound 10 μM; rate relative to culture without compound
# T1 construct: endogenous in cells; host or cells: A431 cells, IFN-γ stimulated
# Procedure: A431 cells (3.0×10^5 cells/mL) suspended in a culture medium for assay (D-MEM; Wako 040-30095, 5% FBS, 50 units/mL penicillin, 50 μg/mL streptomycin, and 2 mM L-glutamine) were inoculated at 100 μL/well to a transparent 96-well flat-bottomed plate and cultured at 37° C. for 24 hours in 5% CO2. The culture medium was removed from the cells thus cultured. A tryptophan-containing culture medium (culture medium for assay supplemented with 178 μM L-tryptophan) was added at 80 μL/well, and further, a compound solution was added at 10 μL/well. The cells were preincubated for 1 hour. Then, the whole amount was brought to 100 μL/well by the addition of 10 μL/well of IFN-γ diluted into 100 ng/mL with a tryptophan-containing culture medium, and the cells were cultured for 24 hours. After the culture, absorbance was measured at 460 nm using SpectraMax MSSK (Molecular Devices, LLC) (background measurement). After the measurement, a kynurenine quantification reagent (prepared with 7% [v/v] aqueous trichloroacetic acid solution and a solution of 2% [w/v] p-dimethylbenzaldehyde in acetic acid at 2:5 [v/v]) was added at 200 μL/well and reacted for 5 minutes, followed by the measurement of absorbance at 460 nm again. The rate of kynurenine production was calculated according to the following expression. Rate of kynurenine production (%) for each compound in the case of using A431 cells={(Absorbance at 460 nm in the tryptophan-containing culture medium comprising the A431 cells and the solution of the compound of the present invention−Absorbance of the background)/(Absorbance at 460 nm in the tryptophan-containing culture medium without the addition of the compound solution−Absorbance of the background)}×100 TDO Cell-Based Assay Protocol
# TDO in A172 cells = target: T2, TDO in A172 cells (Homo sapiens, UniProt P48775); assay: TDO cell-based assay, kynurenine production in A172 cells; conditions: A 172; final concentration of the compound 10 μM; rate relative to culture without compound
# T2 construct: endogenous in cells; host or cells: A172 cells
# Procedure: A172 cells (3.0×10^5 cells/mL) suspended in a culture medium for assay (PRMI-1640; Wako 186-02155, 5% FBS, 50 units/mL penicillin, and 50 μg/mL streptomycin) were inoculated at 100 μL/well to a transparent 96-well flat-bottomed plate and cultured at 37° C. for 24 hours in 5% CO2. The culture medium was removed from the cells thus cultured. A culture medium for assay was added at 80 μL/well, and further, a compound solution was added at 10 μL/well. The cells were preincubated for 1 hour. Then, the whole amount was brought to 100 μL/well by the addition of 10 μL/well of a 5 mM aqueous tryptophan solution (final concentration of L-tryptophan: 524 μM), and the cells were cultured for 24 hours. After the culture, absorbance was measured at 460 nm using SpectraMax MSSK (Molecular Devices, LLC) (background measurement). After the measurement, a kynurenine quantification reagent (prepared with 7% [v/v] aqueous trichloroacetic acid solution and a solution of 2% [w/v] p-dimethylbenzaldehyde in acetic acid at 2:5 [v/v]) was added at 200 μL/well and reacted for 5 minutes, followed by the measurement of absorbance at 460 nm again. The rate of kynurenine production was calculated according to the following expression. Rate of kynurenine production (%) for each compound in the case of using A172 cells={(Absorbance at 460 nm in the tryptophan-containing culture medium comprising the A172 cells and the solution of the compound of the present invention−Absorbance of the background)/(Absorbance at 460 nm in the tryptophan-containing culture medium without the addition of the compound solution−Absorbance of the background)}×100
# [2] = target: rhIDO (recombinant human IDO) (Homo sapiens, UniProt P14902); assay: Enzyme assay using rhIDO (rate of kynurenine production); assay type: biochemical; conditions: 2 h; final concentration of the compound 10 μM; rate relative to reaction without compound; read-out: rhIDO-mediated kynurenine production
# Procedure: Enzyme Assay Protocol Using rhIDO (Recombinant Human IDO)
# 4 μL of a compound solution was added to 176 μL of a rhIDO reaction solution (0.5 M potassium phosphate buffer (20 μL), 0.2 M ascorbic acid (20 μL), 0.5 mM methylene blue (4 μL), 10 mg/mL catalase (2 μL), H2O (128 μL), and rhIDO (2 μL)). The mixture was pipetted and preincubated at 37° C. for 10 minutes. Then, the whole amount was brought to 200 μL by the addition of 20 μL of a 2 mM aqueous tryptophan solution, and the mixture was pipetted again and reacted at 37° C. for 120 minutes. After the reaction, the enzymatic reaction was terminated by the addition of 40 μL of a 30% [v/v] aqueous trichloroacetic acid solution to the reaction solution. The mixture was well stirred by pipetting and heated at 50° C. for 15 minutes so that N-formylkynurenine was converted to kynurenine. The reaction solution thus heated was centrifuged (15,000 rpm, 5 min, 24° C.), and 150 μL of the supernatant was transferred to a transparent 96-well flat-bottomed plate, followed by the measurement of absorbance at 490 nm using SpectraMax MSSK (background measurement). After the measurement, a solution of 2% [w/v] p-dimethylbenzaldehyde in acetic acid was added at 150 μL/well and reacted for 5 minutes, followed by the measurement of absorbance at 490 nm again. The rate of kynurenine production was calculated according to the following expression. Rate of kynurenine production (%) for each compound in the case of using rhIDO={(Absorbance at 490 nm in the tryptophan-containing aqueous solution comprising rhIDO and the compound of the present invention−Absorbance of the background)/(Absorbance at 490 nm in the tryptophan-containing aqueous solution without the addition of the compound solution−Absorbance of the background)}×100 Enzyme Assay Protocol Using rhTDO (Recombinant Human TDO)
# Chain of rhIDO (recombinant human IDO) (P14902 whole entry): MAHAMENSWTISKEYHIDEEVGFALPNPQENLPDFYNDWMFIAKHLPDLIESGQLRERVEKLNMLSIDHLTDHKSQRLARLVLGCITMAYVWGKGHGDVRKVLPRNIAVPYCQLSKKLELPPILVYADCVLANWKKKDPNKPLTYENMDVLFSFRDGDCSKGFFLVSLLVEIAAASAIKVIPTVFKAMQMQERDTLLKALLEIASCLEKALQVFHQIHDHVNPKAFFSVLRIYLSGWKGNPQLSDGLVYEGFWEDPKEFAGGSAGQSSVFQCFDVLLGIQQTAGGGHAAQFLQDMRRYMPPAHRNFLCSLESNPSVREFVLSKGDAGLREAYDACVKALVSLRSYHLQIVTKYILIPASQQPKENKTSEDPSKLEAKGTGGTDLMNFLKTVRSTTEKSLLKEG
# T1 sequence (P14902 whole entry): as above
# T2 sequence (P48775 whole entry): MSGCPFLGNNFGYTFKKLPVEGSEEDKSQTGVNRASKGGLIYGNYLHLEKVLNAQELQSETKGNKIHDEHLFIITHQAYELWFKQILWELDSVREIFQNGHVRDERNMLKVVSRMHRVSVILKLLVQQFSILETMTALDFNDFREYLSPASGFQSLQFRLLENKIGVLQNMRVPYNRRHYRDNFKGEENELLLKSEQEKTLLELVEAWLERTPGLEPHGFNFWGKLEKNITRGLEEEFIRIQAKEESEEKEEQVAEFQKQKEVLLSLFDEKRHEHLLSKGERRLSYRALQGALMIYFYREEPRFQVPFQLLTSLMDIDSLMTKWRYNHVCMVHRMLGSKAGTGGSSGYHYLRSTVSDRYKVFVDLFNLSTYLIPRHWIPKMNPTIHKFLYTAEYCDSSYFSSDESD
# Chain of rhTDO (recombinant human TDO) (P48775 whole entry): as above
remaining activity at 10 µM [1],remaining activity at 10 µM (IDO in A431 cells),remaining activity at 10 µM (TDO in A172 cells),remaining activity at 10 µM [2],SMILES
30%,7%,78%,6%,"N=C(N)SCc1ccc2ccccc2c1CSC(=N)N [Compound 3, naphthalene-1,2-diylbis(methylene) dicarbamimidothioate dihydrobromide]"
56%,68%,102%,64%,"CC(C)(C)c1ccc(CSC(=N)N)c(CSC(=N)N)c1 [Compound 4, (4-(tert-butyl)-1,2-phenylene)bis(methylene) dicarbamimidothioate dihydrobromide]"
84%,85%,113%,69%,"N=C(N)SCc1nc2ccccc2nc1CSC(=N)N [Compound 5, quinoxaline-2,3-dilylbis(methylene) dicarbamimidothioate dihydrobromide]"
9%,75%,74%,15%,"N=C(N)SCc1c(F)c(F)c(F)c(F)c1CSC(=N)N [Compound 6, (perfluoro-1,2-phenylene)bis(methylene) dicarbamimidothioate dihydrobromide]"
52%,10%,20%,77%,"C/N=C(\NC)SCc1ccccc1CS/C(=N/C)NC [Compound 8, 1,2-phenylenebis(methylene) (E,E)-bis(N,N′-dimethylcarbamimidothioate) dihydrodhloride]"
36%,10%,0%,30%,"c1ccc(CCN2CN=C(SCc3ccccc3CSC3=NCN(CCc4ccccc4)CN3)NC2)cc1 [Compound 9, 1,2-bis(((5-phenethyl-1,4,5,6-tetrahydro-1,3,5-triazin-2-yl)thio)methyl)benzene]"
58%,6%,19%,51%,"CNC(=N)SCc1ccccc1CSC(=N)NC [Compound 11, 1,2-phenylenebis(methylene) bis(methylcarbamimidothioate) dihydrochloride]"
10%,13%,0%,20%,"Cc1ccc(CSC(=N)N)c(CSC(=N)N)c1 [Compound 12, (4-methyl-1,2-phenylene)bis(methylene) dicarbamimidothioate dihydrobromide]"
9%,32%,42%,15%,"N=C(N)SCc1cccc(F)c1CSC(=N)N [Compound 13, (3-fluoro-1,2-phenylene)bis(methylene) dicarbamimidothioate dihydrobromide]"
31%,7%,4%,52%,"c1ccc(CN2CN=C(SCc3ccccc3CSC3=NCN(Cc4ccccc4)CN3)NC2)cc1 [Compound 14, 1,2-bis(((5-benzyl-1,4,5,6-tetrahydro-1,3,5-triazin-2-yl)thio)methyl)benzene]"
68%,76%,74%,66%,"c1cnc(SCc2ccccc2CSc2ncccn2)nc1 [Compound 16, 1,2-bis((pyrimidin-2-ylthio)methyl)benzene]"
25%,8%,0%,30%,"Clc1ccc(CCN2CN=C(SCc3ccccc3CSC3=NCN(CCc4ccc(Cl)cc4)CN3)NC2)cc1 [Compound 17, 1,2-bis(((5-(4-chlorophenethyl)-1,4,5,6-tetrahydro-1,3,5-triazin-2-yl)thio)methyl)benzene]"
27%,7%,-1%,23%,"Clc1ccc(Cl)c(CN2CN=C(SCc3ccccc3CSC3=NCN(Cc4cc(Cl)ccc4Cl)CN3)NC2)c1 [Compound 18, 1,2-bis(((5-(2,5-dichlorobenzyl)-1,4,5,6-tetrahydro-1,3,5-triazin-2-yl)thio)methyl)benzene]"
46%,5%,1%,43%,"Brc1cccc(CCN2CN=C(SCc3ccccc3CSC3=NCN(CCc4cccc(Br)c4)CN3)NC2)c1 [Compound 19, 1,2-bis(((5-(3-bromophenethyl)-1,4,5,6-tetrahydro-1,3,5-triazin-2-yl)thio)methyl)benzene]"
